By pEC50 is commonly meant −log10 of the EC50, conventionally taken in molar units.

This note sets out measurements from ChEMBL document CHEMBL5247619, “Novel alpha6 preferring GABA-A receptor ligands based on loreclezole” (Eur J Med Chem, 2022).

The target in assay [1] is Gamma-aminobutyric acid receptor subunit alpha-6/beta-3/gamma-2 (Rattus norvegicus) (UniProt P18508+P30191+P63079). Description: Modulation of rat alpha6beta3gamma2 GABA A receptor expressed in Xenopus oocytes assessed as desensitization of GABA current at -80 mV holding potential at more than 300 uM by two-electrode voltage-clamp assay relative to control. The format is cell-based. As to conditions: filed as modulator. For orientation: In two-electrode clamp one electrode senses voltage and the other passes current.

Assay [2] deals with Gamma-aminobutyric acid receptor subunit alpha-6/beta-3/gamma-2 (Rattus norvegicus, UniProt P18508+P30191+P63079). Description: Modulation of rat alpha6beta3gamma2 GABA A receptor expressed in Xenopus oocytes assessed as reduction in desensitization at -80 mV holding potential by two-electrode voltage-clamp assay. The format is cell-based.

pEC50: −log10 of the molar value.

Sequence of Gamma-aminobutyric acid receptor subunit alpha-6/beta-3/gamma-2 (P18508 whole entry): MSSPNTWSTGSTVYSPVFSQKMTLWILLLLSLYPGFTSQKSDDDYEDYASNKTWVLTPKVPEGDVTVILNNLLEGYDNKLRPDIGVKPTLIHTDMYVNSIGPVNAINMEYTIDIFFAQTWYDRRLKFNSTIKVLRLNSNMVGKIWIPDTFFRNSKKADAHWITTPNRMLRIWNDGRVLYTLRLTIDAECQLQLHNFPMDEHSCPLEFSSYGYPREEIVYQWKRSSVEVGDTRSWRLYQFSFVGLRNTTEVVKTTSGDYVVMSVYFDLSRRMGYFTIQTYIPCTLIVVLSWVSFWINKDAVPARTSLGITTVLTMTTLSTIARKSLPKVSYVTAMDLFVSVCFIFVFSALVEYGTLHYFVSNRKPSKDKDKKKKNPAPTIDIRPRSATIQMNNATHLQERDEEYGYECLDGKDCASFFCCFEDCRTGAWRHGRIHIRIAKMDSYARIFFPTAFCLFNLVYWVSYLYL
Sequence of Gamma-aminobutyric acid receptor subunit alpha-6/beta-3/gamma-2 (P30191 whole entry): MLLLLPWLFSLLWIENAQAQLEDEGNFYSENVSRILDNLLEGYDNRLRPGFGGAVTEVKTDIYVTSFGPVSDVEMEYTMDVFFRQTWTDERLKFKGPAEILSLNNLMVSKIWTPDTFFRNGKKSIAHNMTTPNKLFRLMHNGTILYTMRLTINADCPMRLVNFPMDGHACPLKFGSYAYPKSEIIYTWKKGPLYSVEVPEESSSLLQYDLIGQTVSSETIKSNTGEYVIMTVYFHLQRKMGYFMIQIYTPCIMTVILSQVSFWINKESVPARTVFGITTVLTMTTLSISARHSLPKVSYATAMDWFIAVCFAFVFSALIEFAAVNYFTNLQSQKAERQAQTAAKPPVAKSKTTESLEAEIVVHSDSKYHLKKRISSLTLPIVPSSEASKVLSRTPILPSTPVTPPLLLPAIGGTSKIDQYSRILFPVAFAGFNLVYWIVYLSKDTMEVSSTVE
Sequence of Gamma-aminobutyric acid receptor subunit alpha-6/beta-3/gamma-2 (P63079 whole entry): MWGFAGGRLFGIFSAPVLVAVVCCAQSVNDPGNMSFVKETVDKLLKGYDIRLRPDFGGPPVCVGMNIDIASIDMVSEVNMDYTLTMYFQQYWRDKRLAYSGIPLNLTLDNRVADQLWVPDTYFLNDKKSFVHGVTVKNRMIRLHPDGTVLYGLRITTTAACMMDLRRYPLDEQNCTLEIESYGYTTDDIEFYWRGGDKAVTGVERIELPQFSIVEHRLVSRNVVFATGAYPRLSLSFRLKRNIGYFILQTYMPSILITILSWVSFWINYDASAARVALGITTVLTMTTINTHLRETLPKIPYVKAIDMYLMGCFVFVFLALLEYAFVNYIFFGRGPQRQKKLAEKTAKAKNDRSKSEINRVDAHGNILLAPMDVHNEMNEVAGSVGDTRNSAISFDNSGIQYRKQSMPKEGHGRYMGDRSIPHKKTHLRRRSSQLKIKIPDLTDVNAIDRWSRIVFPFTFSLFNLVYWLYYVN

As to `Cc1ccc(C(C)(C)CC#N)c(Cl)c1`, the Activity in assay [1] was found to be 1360%. Besides, in assay [2], the negative-log EC50 (pEC50) was 4.55.
The like results for `Cc1ccc(C(C)CC#N)c(Cl)c1` (racemic) were, in that order, 600% and 4.42.
Take `Cl/C(=C\n1cncn1)c1ccc(Cl)cc1Cl` [LORECLEZOLE]: in assay [1], the Activity is 600%. Also, the negative logarithm of the EC50 (pEC50) in assay [2] is 4.42.
